These results are taken from PMC10415494, “Ga(III) pyridinecarboxylate complexes: potential analogues of the second generation of therapeutic Ga(III) complexes?” (Journal of Biological Inorganic Chemistry, 2023).

The structures appear in SMILES notation. Read-outs that look alike come from different tables or passages of the source.

Series [1] has as its system Escherichia coli (E. coli) CCM 3988. Put plainly: Antimicrobial activity, macrodilution method (growth by A590). It counts as cell-based. To be noted: for IC50: Bacteria, MHB, 37 °C, DMSO max 1.0 vol. %, read-out: IC50 E. coli. As to the method: (§1) The antimicrobial activities of gallium(III) complexes GaPic, GaDpic, GaChel, GaCldpic, free ligands (HPic, H2Dpic, H2Chel, H2Cldpic) and positive controls (cefoxitin (C), ampicillin (A) and piperacillin (P)) were evaluated by macrodilution method using G^+ bacteria (Firmicutes) Staphylococcus aureus (S. aureus) CCM 3953 (Czech Collection of Microorganisms), G^− bacteria (γ-proteobacteria) Escherichia coli (E. coli) CCM 3988, Pseudomonas aeruginosa (P. aeruginosa) CCM 1959 (Czech Collection of Microorganisms) and the yeast Candida parapsilosis (C. parapsilosis) ATCC 22019 (American type culture collection). Cultures of bacteria (in Mueller–Hinton broth, MHB) and yeasts (in Sabouraud’s growth medium, SB) were incubated under shaking (250 rpm) at 37 °C. The growth of bacteria and yeasts was evaluated by measuring the absorbance of the growing cultures (A590) until the cultures reached the stationary growth phase. The effects of gallium(III) complexes on the growth of filamentous fungi Rhizopus oryzae (R. oryzae) CCM F-8284, Alternaria alternata (A. alternata) CCM F-128 and Microsporum gypseum (M. gypseum) CCM F-8342 (Czech Collection of Microorganisms) were observed by macrodilution method on solidified potato-dextrose growth medium (PDA). During culturing, the diameters of growing fungal colonies were measured at regular intervals. Briefly, the antimicrobial activity (bacteria and yeasts) gallium(III) complexes/ ligands were added to the microbial culture at the beginning of the cultivation-to the lag phase. Pure gallium(III) complexes/ligands were dissolved in DMSO. The final concentration of DMSO never exceeded 1.0 vol. % neither in control nor treated samples. Concentration of gallium(III) complexes used in experimental work for evaluation of antimicrobial activity was used in the range of 0.05–2 mM, for the free ligands in the range of 0.5–2.0 mM in all experiments. […] The IC50 values were evaluated from toxicity curves. All the obtained results of antimicrobial activity were compared to the activity of Ga(NO3)3.

In series [2] the test system is Staphylococcus aureus (S. aureus) CCM 3953. The series is described as above. It is filed as cell-based. As to conditions: for IC50: Bacteria, MHB, 37 °C, DMSO max 1.0 vol. %, read-out: IC50 S. aureus. The protocol: as §1
The subject of series [3] is Pseudomonas aeruginosa (P. aeruginosa) CCM 1959. The description is as above. It is filed as cell-based. As to conditions: Pseudomonas aeruginosa, CCM1959; Bacteria; MHB, 37 °C; DMSO max 1.0 vol. %; read-out: IC50 P. aeruginosa. The protocol: as §1
Series [4] deals with Candida parapsilosis (C. parapsilosis) ATCC 22019. Put plainly: Antimicrobial activity, macrodilution method (yeast, growth by A590). It counts as cell-based. As to conditions: Yeast, Sabouraud's growth medium, 37 °C, read-out: IC50 C. parapsilosis. As to the method: as §1
Series [5] relates to Rhizopus oryzae (R. oryzae) CCM F-8284. Description: Growth of filamentous fungi, macrodilution method on solidified PDA (colony diameter). It counts as cell-based. As to conditions: solidified potato-dextrose growth medium, read-out: IC50 R. oryzae. The protocol:
as §1

The subject of series [6] is Alternaria alternata (A. alternata) CCM F-128. The description is as above. It counts as cell-based. As to conditions: Filamentous fungi, solidified potato-dextrose growth medium, read-out: IC50 A. alternata. The protocol:
as §1

Series [7] has as its system Microsporum gypseum (M. gypseum) CCM F-8342. The description is as above. It is filed as cell-based. As to conditions: Filamentous fungi, solidified potato-dextrose growth medium, read-out: IC50 M. gypseum. As to the method:
as §1

A short description of series [8]: MTS antiproliferative assay (non-cancer cells). As to conditions: human. The protocol: (§2) Cell culture the cell lines A2058 (human metastatic melanoma), BLM (human metastatic melanoma), HCT116 (human colorectal carcinoma), HeLa (human cervical adenocarcinoma), Jurkat (human leukaemic T cell lymphoma). […] Cells were maintained in standard conditions with an atmosphere containing 5% CO2 at 37 °C.
(§3) The antiproliferative activity of Ga(III) complexes GaPic, GaDpic, GaChel, GaCldpic, free ligands (HPic, H2Dpic, H2Chel, H2Cldpic) and cisplatin (cisPt) were evaluated by colorimetric microculture MTS (3-(4,5-dimethylthiazol-2-yl)-5-(3-carboxymethoxyphenyl)-2-(4-sulfophenyl)-2H tetrazolium) assay (Promega, Madison, WI, USA). Cancer and non-cancer cells were seeded at density 5 × 10^3 cells/well in 96-well polystyrene microplates. Twenty-four hours after cell seeding, different concentrations (1.0—100.0 µM) of the compounds were tested. After 72 h of incubation, 10 µL of MTS was added to each well. After an additional 2 h, cell proliferation was evaluated by measuring of absorbance at wavelength 490 nm using the automated Cytation™ 3 Cell Imaging Multi-Mode Reader (Biotek, Winooski, VT, USA). The absorbance of control wells was taken as 100%, and the results were expressed as a percent of untreated control. IC50 values were calculated from MTS analyses.
A general note: Tetrazolium dyes change colour on reduction, which living cells bring about.

The next series relates to any model microorganism. Description: Antimicrobial activity, macrodilution method, all model microorganisms together. It is filed as cell-based. As to conditions: free ligands, range 0.5–2.0 mM. The protocol:
as §1, with “Cultures” for “The antimicrobial activities of gallium(III) complexes GaPic, GaDpic, GaChel, GaCldpic, free ligands (HPic, H2Dpic, H2Chel, H2Cldpic) and positive controls (cefoxitin (C), ampicillin (A) and piperacillin (P)) were evaluated by macrodilution method using G^+ bacteria (Firmicutes) Staphylococcus aureus (S. aureus) CCM 3953 (Czech Collection of Microorganisms), G^− bacteria (γ-proteobacteria) Escherichia coli (E. coli) CCM 3988, Pseudomonas aeruginosa (P. aeruginosa) CCM 1959 (Czech Collection of Microorganisms) and the yeast Candida parapsilosis (C. parapsilosis) ATCC 22019 (American type culture collection). Cultures”

Series [9] deals with PaTu 8902 (human pancreatic adenocarcinoma). Description: MTS antiproliferative assay. The protocol: as §2, §3
Series [10] deals with HeLa (human cervical adenocarcinoma). Put plainly: MTS antiproliferative assay. As to the method: as §2, §3
Series [11] relates to Jurkat (human leukaemic T cell lymphoma). Description: MTS antiproliferative assay. As to the method: as §2, §3
Series [12] relates to A2058 (human metastatic melanoma). Put plainly: MTS antiproliferative assay. The protocol:
as §2, §3

Series [13] deals with HCT116 (human colorectal carcinoma). Description: MTS antiproliferative assay. The protocol: as §2, §3
Series [14] has as its system MDA-MB-231 (human mammary gland adenocarcinoma). Description: MTS antiproliferative assay. The protocol:
as §2, §3

A short description of series [15]: Complex stability in biological testing medium by time-dependent 1H NMR. It is filed as physicochemical. To be noted: 300 K, over 96 h. The protocol:
Nuclear magnetic resonance (NMR) data were collected on a Varian VNMRS 600 spectrometer operating at 599.87 MHz for ^1H. The concentration of all samples was approximately 3 mg/0.6 mL of 1% DMSO-d6/D2O. For comparison, the spectra of pure acids were also measured, while the pH of the solution of acids was adjusted to the same value as the solution of the complexes. The chemical shifts were referenced to the TSP (3-(trimethylsilyl)propionic-2,2,3,3-d4 acid sodium salt) peak (^1H NMR 0.00 ppm). The NMR data were recorded at 300 K, with chemical shifts δ reported in parts per million and coupling constants J in Hertz. All data were analysed using MestReNova 12.0.0 (2017) software. The stability in 1% DMSO-d6/D2O was determined for all samples. […]

Series [16] relates to human dermal fibroblasts (HDF). Description: in vitro. As to the method:
as §2, §3

Series [17] deals with T1, bovine serum albumin (BSA) (Bos taurus, UniProt P02769).
T1 construct: purchased Sigma-Aldrich Chemicals
Put plainly: BSA fluorescence quenching (Stern-Volmer). It counts as binding. To be noted: 0.01 M PBS buffer pH 7.4, 25 °C, λex = 280 nm. As to the method: Fluorescence measurements were carried out on a Varian Cary Eclipse spectrofluorometer. The quenching studies of BSA with the Ga(III) complexes were investigated to determine whether they were able to quench fluorescence of BSA. All measurements were performed at 25 °C in 0.01 M PBS buffer (pH 7.4). The fluorescence spectra were measured at an excitation wavelength of 280 nm, with a slit width of 10 nm for the excitation and emission beams, in the range of 300–450 nm and analysed according to the classical Stern–Volmer Equation: F0/F=1+KSVQ where F0 and F are the fluorescence intensities in the absence and the presence of the quencher, respectively, KSV is the Stern–Volmer constant, and [Q] is the concentration of quencher.

The test system of series [18] is HepG2 (human liver cancer cell line). Description: MTT cell viability test. To be noted: after 48 h. It is filed as cell-based. As to the method: Prior to each experiment, cell viability was determined using an automated cell counter (Countess II FL, Thermo Fisher Scientific, USA). 50 μl of the HepG2 cell suspension was transferred into new tube and 12.5 μl of trypan blue was added. After one minute, 10 μl was taken from the prepared suspension to determine the number of viable cells in 1 ml. The automated cell counter determined the total number of viable cells and the percentage of viability. […] Cells (2 × 10^4/200 μl) were incubated in 96-well microtiter plates for 24 and 48 h in the presence of metal complexes, picolinic acid, and gallium(III) nitrate, at 37 °C in humified atmosphere with 5% CO2. The cells were centrifuged for 10 min at 2500 rpm and 20 °C, supernatant was removed and 180 μl of fresh serum-free medium was added. Then 10 μl of MTT solution with a concentration of 5 mg/ml was added and cells were incubated for next 2–3 h in the dark until a precipitate formed. After centrifugation and removal of supernatant 150 μl of DMSO was added to the cells to dissolve the precipitate. Absorbance at 540 nm was measured using a spectrophotometer.

Where [19] appears, read: Lodderomyces parapsilosis, ATCC22019.
The mark [20] stands for this setting: Homo sapiens, PaTu 8902, 72 h, read-out: Cytotoxic activity IC50 PaTu 8902.
Setting [21] is: Homo sapiens, HeLa, 72 h, read-out: Cytotoxic activity IC50 HeLa.
The mark [22] stands for this setting: Homo sapiens, Jurkat, 72 h, read-out: Cytotoxic activity IC50 Jurkat.
[23] abbreviates: Homo sapiens, A2058, 72 h, read-out: Cytotoxic activity IC50 A2058.
Where [24] appears, read: Homo sapiens, HCT-116, 72 h, read-out: Cytotoxic activity IC50 HCT116.
Where [25] appears, read: Homo sapiens, MDA-MB-231, 72 h, read-out: Cytotoxic activity IC50 MDA-MB-231.

T1 sequence (P02769 25-607): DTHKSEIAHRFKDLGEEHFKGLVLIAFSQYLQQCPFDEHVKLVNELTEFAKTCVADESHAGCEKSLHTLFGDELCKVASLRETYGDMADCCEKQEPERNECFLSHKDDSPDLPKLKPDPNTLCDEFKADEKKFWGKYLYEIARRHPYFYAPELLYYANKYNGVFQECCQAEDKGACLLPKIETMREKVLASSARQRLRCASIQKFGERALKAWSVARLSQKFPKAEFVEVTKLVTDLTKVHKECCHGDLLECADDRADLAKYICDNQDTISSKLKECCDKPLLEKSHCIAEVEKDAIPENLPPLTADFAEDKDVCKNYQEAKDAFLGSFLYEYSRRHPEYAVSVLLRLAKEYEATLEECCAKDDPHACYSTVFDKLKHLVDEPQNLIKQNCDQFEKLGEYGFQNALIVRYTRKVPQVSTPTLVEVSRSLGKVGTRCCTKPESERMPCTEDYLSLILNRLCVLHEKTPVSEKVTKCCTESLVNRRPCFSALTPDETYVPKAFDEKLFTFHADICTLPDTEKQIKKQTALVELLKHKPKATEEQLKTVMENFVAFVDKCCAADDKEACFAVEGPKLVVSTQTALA

A word on the IC50: it is the point on the concentration scale where inhibition reaches its midpoint. As to `O=C(O)c1cc(Cl)cc(C(=O)O)n1` [H2Cldpic, 4-chlorodipicolinic acid], the IC50 in series [1] (Escherichia coli, CCM3988) is over 500 µM; in [2] (Staphylococcus aureus, CCM3953), over 500 µM; in series [3], over 500 µM; in [4] (setting [19]), over 500 µM; in series [5] (Rhizopus arrhizus), over 500 µM; in series [6] (Alternaria alternata) it was over 500 µM. Moreover, the IC50 in series [7] (Nannizzia gypsea) was over 500 µM; in [9] (setting [20]), over 200 µM; in series [10] (setting [21]), over 200 µM; in series [11] (setting [22]), over 200 µM; in series [12] (setting [23]), over 200 µM; in series [13] (setting [24]), over 200 µM. Moreover, the IC50 in [14] (setting [25]) is over 200 µM. The same molecule gave a half-inhibitory concentration (IC50) at 72 h in [8] (human dermal fibroblasts (HDF)) of over 200 µM. The “effect on the growth of any model microorganism” value with any model microorganism is on record as “did not affect the growth”.

For the molecule `O=C(O)c1cc(O)cc(C(=O)O)n1` [H2Chel, chelidamic acid], the half-inhibitory concentration (IC50) in series [1] (Escherichia coli, CCM3988) was over 500 µM; in [2] (Staphylococcus aureus, CCM3953), over 500 µM; in [3], over 500 µM; in [4] (setting [19]) it was over 500 µM; in series [5] (Rhizopus arrhizus) it was over 500 µM; in series [6] (Alternaria alternata), over 500 µM. The 50% inhibitory concentration (IC50) in series [7] (Nannizzia gypsea) is over 500 µM; in series [9] (setting [20]), over 200 µM; in series [10] (setting [21]) it was over 200 µM; in series [11] (setting [22]), over 200 µM; in series [12] (setting [23]), over 200 µM; in series [13] (setting [24]), over 200 µM. In addition, the IC50 in series [14] (setting [25]) is over 200 µM. Also, the IC50 at 72 h in series [8] was over 200 µM. Moreover, the “effect on the growth of any model microorganism” value in the series with any model microorganism is reported as “did not affect the growth”.

In the case of `O.O=C([O-])c1cccc(C(=O)[O-])n1.O=C([O-])c1cccc(C(=O)[O-])n1.[Ga+3].[OH3+]` [GaDpic, H3O[Ga(Dpic)2]·H2O], in [15], the “stability in 1% DMSO-d6/D2O solution” value was “stable”. In addition, the concentration for half-maximal inhibition (IC50) in [1], in [2], in [4], in series [5], in series [6] and in series [7] was over 2000 µM in each case. In addition, the 50% inhibitory concentration (IC50) in series [16] turned out to be 288 ± 26.6 µM; in series [9], 509 ± 32.6 µM; in [10], 1140 ± 135 µM; in [11], 325 ± 34.9 µM; in series [12] it was 287 ± 59.3 µM; in series [13] it was 1240 ± 58.9 µM. Further, 308 ± 67.8 µM corresponded to half-maximal inhibition in [14] (IC50). Further, the “partial inhibition of E. coli growth” value in [1] (concentration not given) came out at 30%. The “inhibition of S. aureus growth” value in series [2] (complex at 2 mM) stood at 24%. In addition, the “Stern–Volmer binding constant Ksv BSA” value in [17] was determined as 68500 M⁻¹.

Regarding `O=C([O-])c1ccccn1.[Ag+]` [AgPic], the “decrease in cell viability of HepG2” value was found to be 45% in series [18] (75 μM) and 40% in [18] (100 μM).
